In patent publication US20160304957A1, “TREATMENT AND MODULATION OF GENE EXPRESSION AND SKIN AGING” (DSM NUTRITIONAL PRODUCTS LTD., priority 2006, published 2016):

How the values were obtained:
Type in all cases: cell-based, human
MMP-3 = test: QRT-PCR gene expression in HaCaT cells with or without UVA
Description: (§1) HaCaT cells were obtained from Prof. Fusenig, German Cancer Research Centre, Heidelberg. […] The accuracy of cell counting was approximately 99%.
(§2) On day 3 of the experiment, cells were washed six times with Ca/Mg-free PBS containing 2% BSA, and then irradiated with light with a Hönle sun lamp Sol 500 (Dr. Hönle, Plannegg, Germany) at a dose of 270 kJ/m^2 in Ca/Mg-free PBS (2 hour exposure time at […]). The experimental schedule was chosen because the cells had optimal UVA sensitivity after 48 hours in culture. […] Confluent cultures were much less sensitive to irradiation.
(§3) After irradiation, the cells were supplied with fresh β-carotene-containing serum-free medium and kept in the incubator at 37° C., 5% CO2 until harvest of the samples. In experiments in which the half-life of ^1O2 was prolonged by D2O to enhance its effect, PBS was prepared in D2O, instead of in H2O, as it was done for the standard conditions described above. Cells were washed twice in D2O-PBS prior to irradiation in D2O-PBS. After irradiation, cells were maintained with fresh β-carotene-containing serum-free medium. Sham controls were treated in an identical manner, by placing them under the solar simulator but shielded from light.
(§4) Total RNA was isolated by using Trizol™ (Invitrogen, Basel, Switzerland) according to the instructions of the manufacturer. Random-primed cDNA was synthesized using the Superscript pre-amplification system for first strand cDNA synthesis (Invitrogen).
(§5) cDNA corresponding to 10 ng total RNA was used as template to quantify the relative RNA expression of the genes of interest by TaqMan® real time PCR.
(§6) The PCR analyses were carried out in triplicate and in a multiplex setup, using 18S rRNA as a calibrator gene. The rRNA primers were used at a final concentration of 50 nM, the probe at 100 nM. For quantification of the genes of interest, the primer concentrations were optimized for sensitivity of template detection. […] PCR reactions were carried out for 40 cycles of 95° C. for 15 seconds and 60° C. for 1 minute in an ABI7700 (Applied Biosystems, Rotkreuz, Switzerland). Regulation of gene expression was calculated as described in user bulletin #2 provided by the manufacturer. A threshold cycle (“CT”) is the first PCR cycle in which an amplification signal is detected. Expression levels are given as δCT values. The δCT value describes the level of gene expression as the average PCR cycle, in which the gene of interest was detected first (CT value), subtracted by the CT value of the calibrator gene 18S rRNA (CTgene of interest−CTcalibrating gene), 18S rRNA served as a measure for the amount of template in the reaction. Routinely, 18S rRNA was detected between PCR cycle 12 and 13 (SE=standard error) A low δCT corresponds to a high mRNA level.

MMP-10 = test: as above
Description: as §1, §2, §3, §4, §5, §6

MMP-1 [1] = test: as above
Description: as §1, §2, §3, §4, §5, §6

TIMP-1 = test: as above; details: vitamin E 50 μM
Description: as §1
Vitamin E (RRR-α-tocopherol; DSM Nutritional Products, Kaiseraugst, Switzerland) stock solutions and vitamin E-containing media were prepared as described for β-carotene-containing solutions, except that vitamin E was dissolved in ethanol. In experiments addressing the vitamin E effect, vitamin E was used in a final concentration of 50 μM. Again, the solvent concentration was kept constant at 0.03% ethanol for all conditions.
as §2, with “irradiation. […]” for “irradiation.”
as §5
The PCR analyses were carried out in triplicate and in a multiplex setup, using 18S rRNA as a calibrator gene. […] For quantification of the genes of interest, the primer concentrations were optimized for sensitivity of template detection. […] Regulation of gene expression was calculated as described in user bulletin #2 provided by the manufacturer. A threshold cycle (“CT”) is the first PCR cycle in which an amplification signal is detected. […] The δCT value describes the level of gene expression as the average PCR cycle, in which the gene of interest was detected first (CT value), subtracted by the CT value of the calibrator gene 18S rRNA (CTgene of interest−CTcalibrating gene), 18S rRNA served as a measure for the amount of template in the reaction. Routinely, 18S rRNA was detected between PCR cycle 12 and 13 (SE=standard error) A low δCT corresponds to a high mRNA level.

MMP-1 [2] = test: ELISA of MMP-1 release into cell culture supernatant of HaCaT cells; details: 1, 10, or 100 nM RA; unpublished observations
Description: HaCaT cells were supplemented with 0.5, 1.5, or 3 μM β-carotene for 2 days prior to UVA (270 kJ/m^2) irradiation. MMP-1 and TIMP-1 secretion 24 hours after irradiation was analyzed by ELISA. Each condition was represented by three replicates in the experiment. Values are means±standard error.
Release of MMP-1, and TIMP-1 into cell culture supernatant was determined by ELISA at 24 hours after irradiation. MMP-1 and TIMP-1 release was measured using MMP-1 and TIMP ELISA from CALBIOCHEM (San Diego, Calif., USA). The ELISAs were performed according to the manufacturer's instructions.

[3] = vitamin E 50 μM with β-carotene 1.5 μM

SMILES	cooperation with β-carotene in reducing UVA-induction of MMP-3 (MMP-3; [3])	MMP-3 expression (MMP-3; vitamin E alone, 50 μM)	cooperation with β-carotene in reducing UVA-induction of MMP-10 (MMP-10; [3])	MMP-10 expression (MMP-10; vitamin E alone, 50 μM)	cooperation with β-carotene in reducing UVA-induction of MMP-1 (MMP-1 [1]; [3])	MMP-1 expression (MMP-1 [1]; vitamin E alone, 50 μM)	UVA-suppressed TIMP-1 expression (TIMP-1)	UVA-induced MMP-1 secretion (MMP-1 [2])
Cc1c(C)c2c(c(C)c1O)CC[C@@](C)(CCC[C@H](C)CCC[C@H](C)CCCC(C)C)O2 [vitamin E, RRR-α-tocopherol]	did not cooperate	no effect	did not cooperate	no effect	did not cooperate	no effect	restored	–
CC1=C(/C=C/C(C)=C/C=C/C(C)=C/C(=O)O)C(C)(C)CCC1 [RA, retinoic acid]	–	–	–	–	–	–	–	no effect
